{"source": "patent US8217172B2", "about": "“Solid forms of 1-ethyl-3-(5-(5-fluoropyridin-3-yl)-7-(pyrimidin-2-yl)-1H-benzo[d]imidazol-2-yl)urea” (Vertex Pharmaceuticals Incorporated, priority 2007, dated 2012)", "type_in_all_cases": "physicochemical", "key": {"[1]": {"assay": "Solubility in various media (equilibration on a shaking bed for 24 hours, HPLC)", "conditions": "for solubility at 24 h: thermodynamic from solid", "description": "(§1) Solubility: The solubility of form IA in various media was determined at ambient conditions by equilibrating aliquots of the drug powder with the solvents on a shaking bed for 24 hours. The samples were centrifuged, the saturated solutions of the drug were then separated and analyzed by HPLC. The sample volume was 100 μL and the target concentration was 10 mg/mL. The saturated solutions were diluted appropriately and analyzed by HPLC.\nSolubility: Solubility of form IIC in various media was determined at ambient conditions by equilibrating aliquots of the drug powder with the solvents on a shaking bed for 24 hours. Samples were spun and the supernatant was carefully separated and analyzed by HPLC at the 24-hour timepoint using a stability-indicating method. […] Some variability may occur between lots of a particular sample.\nas §1, with “Solubility” for “The solubility”, “IIIB” for “IA”, “medium” for “solvents”, “μL,” for “μL”, “mg/ml.” for “mg/mL.”"}, "[2]": {"assay": "Dynamic Vapor Sorption (DVS), step isothermal study", "conditions": "25° C.", "description": "(§2) Dynamic Vapor Sorption (DVS): A step isothermal study (25° C.) was conducted on a representative sample of form IA using a VTI SGA 100 Symmetric Vapor Sorption Analyzer. An aliquot of approximately 10 mg was weighed in an open platinum dish and exposed to different levels of humidity at 25° C. Relative humidity (RH) steps were from 5% to 95% (adsorption) and from 95% to 5% in increments of 5% RH (desorption). The equilibration criterion was 0.0100 wt % change in 5 min, with a max equilibration time of 180 min. The sample picked up ˜8 wt % moisture at 95% relative humidity (RH).\nas §2, with “a” for “a representative”, “form IIA” for “form IA”, “The material” for “The sample”, “up ˜11” for “up ˜8”\nas §2, with “a” for “a representative”, “form IIC” for “form IA”, “The material” for “The sample”, “up ˜4” for “up ˜8”\nWater Vapor Sorption analysis: Vapor Sorption analysis of a sample of form IIIB was done using a SGA-100 Vapor Sorption Analyzer (VTI, Hialeah, Fla.). A sample with weight of approximately 7-12 mg was measured isothermally at 25° C. Data was collected by Isotherm software and analyzed by Microsoft Excel with a VTI macro (VTI, Hialeah, Fla.). The sample gained about 4.6% in weight from 5 to 95% RH (25° C.)."}, "[3]": {"assay": "Stability analysis (chemical stability by HPLC, physical stability by XRPD)", "excerpt": "In some embodiments, less than 25% of the form of Compound 1 decomposes, in some embodiments, less than about 20%, less than about 15%, less than about 10%, less than about 5%, less than about 3%, less than about 1%, less than about 0.5% of the form of Compound 1 decomposes under the conditions specified. In some embodiments, no detectable amount of the form of Compound 1 decomposes.\nIn some embodiments, less than 25% of the form of Compound 1 changes into one or more different physical forms when subjected to specified conditions, In some embodiments, less than about 20%, less than about 15%, less than about 10%, less than about 5%, less than about 3%, less than about 1%, less than about 0.5% of the form of Compound 1 changes into one or more different physical forms of Compound 1 when subjected to specified conditions. In some embodiments, no detectable amount of the form of Compound 1 changes into one or more different physical forms of Compound 1."}, "[4]": {"conditions": "various storage conditions, including 40° C./75% RH (e.g., open container)"}}, "note": "Like-named read-outs stand apart in the source and are kept apart here.", "data": [{"molecule": "CCNC(=O)Nc1nc2cc(-c3cncc(F)c3)cc(-c3ncccn3)c2[nH]1", "note": "[Form IA, crystalline 1-ethyl-3-(5-(5-fluoropyridin-3-yl)-7-(pyrimidin-2-yl)-1H-benzo[d]imidazol-2-yl)urea]", "values": [{"measurement": "solubility at 24 h", "setting": "[1]; 0.05 M potassium biphthalate-sodium hydroxide buffer, pH 3, aqueous buffer, Potassium biphthalate sodium hydroxide, pH 3, read-out: Solubility in 0.05M Buffers at Different pH", "result": 70, "unit": "µg/mL"}, {"measurement": "solubility at 24 h", "setting": "[1]; 0.05 M potassium biphthalate-sodium hydroxide buffer, pH 5, aqueous buffer, Potassium biphthalate sodium hydroxide, pH 5, read-out: Solubility in 0.05M Buffers at Different pH", "result": "< 1", "unit": "µg/mL"}, {"measurement": "solubility at 24 h", "setting": "[1]; 0.05 M potassium chloride-hydrochloric acid buffer, pH 1, simulated gastric fluid, Potassium chloride hydrochloric acid, pH 1, read-out: Solubility in 0.05M Buffers at Different pH", "result": 2240, "unit": "µg/mL"}, {"measurement": "solubility at 24 h", "setting": "[1]; 0.05 M potassium phosphate monobasic-sodium hydroxide buffer, pH 7, aqueous buffer, Potassium phosphate monobasic-sodium hydroxide, pH 7, read-out: Solubility in 0.05M Buffers at Different pH", "result": "< 1", "unit": "µg/mL"}, {"measurement": "solubility at 24 h", "setting": "[1]; 0.05 M potassium phosphate monobasic-sodium hydroxide buffer, pH 9, aqueous buffer, Potassium phosphate monobasic-sodium hydroxide, pH 9, read-out: Solubility in 0.05M Buffers at Different pH", "result": "< 1", "unit": "µg/mL"}, {"measurement": "solubility at 24 h", "setting": "[1]; 0.1N HCl, pH 1.29, simulated gastric fluid, 0.1N HCL, pH 1.29, ambient, 24 h, read-out: Solubility", "result": 13700, "unit": "µg/mL"}, {"measurement": "solubility at 24 h", "setting": "[1]; 1% SLS (sodium lauryl sulfate), pH 7.87, aqueous with cosolvent or surfactant or cyclodextrin, 1% SLS (Sodium Lauryl Sulfate), pH 7.87, ambient, 24 h, read-out: Solubility", "result": 75, "unit": "µg/mL"}, {"measurement": "solubility at 24 h", "setting": "[1]; 1% Tween 80 in water, aqueous with cosolvent or surfactant or cyclodextrin, 1% Tween80 in water, ambient, 24 h, read-out: Solubility", "result": 10, "unit": "µg/mL"}, {"measurement": "solubility at 24 h", "setting": "[1]; 10% Cremophor EL, pH 6.48, aqueous with cosolvent or surfactant or cyclodextrin, 10% Cremophor EL, pH 6.48, ambient, 24 h, read-out: Solubility", "result": 66, "unit": "µg/mL"}, {"measurement": "solubility at 24 h", "setting": "[1]; 10% Cremophor in water, aqueous with cosolvent or surfactant or cyclodextrin, 10% Cremophor in water, ambient, 24 h, read-out: Solubility", "result": 80, "unit": "µg/mL"}, {"measurement": "solubility at 24 h", "setting": "[1]; 10% Tween 80, pH 6.22, aqueous with cosolvent or surfactant or cyclodextrin, 10% Tween 80, pH 6.22, ambient, 24 h, read-out: Solubility", "result": 67, "unit": "µg/mL"}, {"measurement": "solubility at 24 h", "setting": "[1]; 10% Vit E TPGS, pH 5.57, aqueous with cosolvent or surfactant or cyclodextrin, 10% Vit E TPGS, pH 5.57, ambient, 24 h, read-out: Solubility", "result": 87, "unit": "µg/mL"}, {"measurement": "solubility at 24 h", "setting": "[1]; D5W (dextrose 5% in water), saline or isotonic, D5W (Dextrose 5% in water), ambient, 24 h, read-out: Solubility", "result": "< 1", "unit": "µg/mL"}, {"measurement": "solubility at 24 h", "setting": "[1]; Fasted SIF (Dressman's recipe 1), fassif, Dressman's recipe 1-Fasted SIF, ambient, 24 h, read-out: Solubility", "result": "< 1", "unit": "µg/mL"}, {"measurement": "solubility at 24 h", "setting": "[1]; Fed SIF (simulated intestinal fluid, Dressman's recipe 1), fessif, Dressman's recipe 1-Fed SIF (Simulated Intestinal Fluid), ambient, 24 h, read-out: Solubility", "result": 10, "unit": "µg/mL"}, {"measurement": "solubility at 24 h", "setting": "[1]; Miglyol 810, oil or lipid, Miglyol 810, ambient, 24 h, read-out: Solubility", "result": 17, "unit": "µg/mL"}, {"measurement": "solubility at 24 h", "setting": "[1]; PBS, aqueous buffer, PBS (Phosphate Buffer Saline), ambient, 24 h, read-out: Solubility", "result": "< 1", "unit": "µg/mL"}, {"measurement": "solubility at 24 h", "setting": "[1]; PEG 400, pH 7.54, organic solvent or mixture, PEG 400, pH 7.54, ambient, 24 h, read-out: Solubility", "result": 1620, "unit": "µg/mL"}, {"measurement": "solubility at 24 h", "setting": "[1]; SGF (simulated gastric fluid, USP recipe), simulated gastric fluid, USP recipe-SGF (Simulated Gastric Fluid), ambient, 24 h, read-out: Solubility", "result": 4920, "unit": "µg/mL"}, {"measurement": "solubility at 24 h", "setting": "[1]; Tris buffer, pH 7 (1.0 M), pH 7.2, aqueous buffer, Tris buffer, pH 7 (1.0M), pH 7.20, ambient, 24 h, read-out: Solubility", "result": "< 1", "unit": "µg/mL"}, {"measurement": "solubility", "setting": "[1]; at a pH of about 1", "result": "about 2 mg/mL"}, {"measurement": "solubility at 24 h", "setting": "[1]; deionized water, pH 7.14, water, Deionized Water, pH 7.14, ambient, 24 h, read-out: Solubility", "result": "< 1", "unit": "µg/mL"}, {"measurement": "solubility at 24 h", "setting": "[1]; ethanol, organic solvent or mixture, Ethanol (second entry, pH NA), ambient, 24 h, read-out: Solubility", "result": 220, "unit": "µg/mL"}, {"measurement": "solubility at 24 h", "setting": "[1]; ethanol, pH 6.71, organic solvent or mixture, Ethanol (first entry), pH 6.71, ambient, 24 h, read-out: Solubility", "result": 56, "unit": "µg/mL"}, {"measurement": "solubility at 24 h", "setting": "[1]; octanol, organic solvent or mixture, Octanol, ambient, 24 h, read-out: Solubility", "result": 175, "unit": "µg/mL"}, {"measurement": "solubility at 24 h", "setting": "[1]; pH 1, simulated gastric fluid, at a pH of about 1, read-out: solubility", "result": "≥ 2000", "unit": "µg/mL"}, {"measurement": "solubility at 24 h", "setting": "[1]; propylene glycol, pH 6.04, organic solvent or mixture, Propylene Glycol, pH 6.04, ambient, 24 h, read-out: Solubility", "result": 359, "unit": "µg/mL"}, {"measurement": "hygroscopicity", "setting": "[2]; DVS", "result": "moderate hygroscopicity"}, {"measurement": "hydrate formation", "setting": "[2]; DVS, 5% to 95% RH", "result": "did not form a hydrate"}, {"measurement": "release of adsorbed water in the desorption stage", "setting": "[2]; DVS, 95% to 5% RH", "result": "All adsorbed water was released"}, {"measurement": "moisture picked up at 95% relative humidity (RH)", "setting": "[2]; DVS, adsorption 5% to 95% RH", "result": "~8", "unit": "wt %"}, {"measurement": "weight gain from 5% to 95% relative humidity", "setting": "[2]; step isothermic study (DVS)", "result": 8, "unit": "%"}, {"measurement": "remains chemically stable for at least", "setting": "[3]; 40° C./75% relative humidity", "result": "≥ 6", "unit": "months"}, {"measurement": "remains in substantially the same physical form for at least", "setting": "[3]; 40° C./75% relative humidity", "result": "≥ 6", "unit": "months"}, {"measurement": "stability when subjected to mild mechanical stress", "setting": "[3]; mild mechanical stress such as grinding", "result": "chemically and physically stable"}, {"measurement": "chemically and physically stable for at least about", "setting": "[3]; [4]", "result": "at least 2 weeks"}, {"measurement": "chemically and physically stable for at least about (e.g. value)", "setting": "[3]; [4]", "result": "≥ 6", "unit": "months"}]}]}
